Assay results taken from patent US10897891B2, “Compositions and methods for prolonged cell storage” (Board of Regents, The University of Texas System, priority 2015, dated 2021).

Test system: platelets
Experiment: Epinephrine induced platelet aggregation following cold storage (OD 690 nm, Experiment C)
Format: cell-based, human
Settings: 2% PEG-400, 5° C. for 7 days
Protocol: Platelet aggregation using epinephrine. Ten ml of 24 hr old platelet residual was derived from one platelet unit and split into two 5 ml aliquots in 50 ml tubes. One sample received 10% phosphate buffered saline (PBS) and one 10% PBS containing PEG400 such that the final PEG concentration was 2%. These samples were placed on a flat-bed rotator with a 1 inch stroke, at 70 cycles per min, at 5° C. for 7 days. 100 ul of these platelet suspensions were added to wells of a 96 well U bottom plate. Epinephrine 0.1 mg/ml (Pharmaceutical NDC 0409-4921-34-44-048-DK) was diluted with PBS and 100 ul was added to test wells to give a finial concentration of 10 mcg/ml. The plate was rotated overnight to allow aggregation. The extent of aggregation was read using an ELISA plate reader (Molecular Devises, Vmax) at 690 nm wavelength. Platelets, with and without PEG, were also aggregated by the addition of 10% H2O2. […] Table 3 presents additional cryoprotective agents scored for the effect on microscopic degranulation (20× high contrast lighting as above).
Fresh donor platelets were supplemented with PBS or PBS 2% PEG-400 as described in the methods, and incubated at 5° C. for 7 days. These control and test samples were then loaded side by side on a 96 well plate (ensuring that test and control reading would be made simultaneously). […]

In the case of Polyethylene glycol [PEG-400], the “initial aggregation in the stored state (baseline OD 690 nm, no epinephrine)” value is reported as “less initial aggregation in the stored state” and the “aggregation response to epinephrine challenge (OD 690 nm)” value (0 vs 10 μg epinephrine) is reported as “significant aggregation response to epinephrine”.
